System: HeLa cells
Assay: Measurement of the cell cycle inhibition in HeLa cells
Type: cell-based
Conditions: HeLa B cells, 20 h incubation with compound; FACS ratio G0/G1 to G2/M vs DMSO; concentration at which 50% of cells are in cell cycle arrest
Procedure: Measurement of the Cell Cycle Inhibition in HeLa Cells—Test Procedure:
HeLa B cells are grown in DMEM (Life Technologies Cat No 21969-035) supplemented with 10% Fetal Calf Serum (FCS, Life Technologies Cat No 10270-106) in 180 cm^2 Flasks at 37° C., 92% humidity and 7% CO2.
Cells are seeded at 5×10^4 cells per well in a 24-well plate. Twenty hours later the compounds are added such that the final concentration is 1×10^−6, 3.3×10^−7, 1.1×10^−7, 3.7×10^−8, 1.2×10^−8 and 1×10^−9 M in a final volume of 500 μl. DMSO alone is added to 6 wells as a control. Cells are incubated with the compounds as above for 20 h. Then cells are observed under the microscope to check for cell death, and the 24-well plate is then centrifuged at 1200 rpm for 5 min at 20° C., acceleration position 7 and break position 5 (Eppendorf centrifuge 5804R).
The supernatant is removed and the cells lysed with 0.5 ml RNase Buffer (10 mM NaCitrate, 0.1% Nonidet NP40, 50 μg/ml RNase, 10 μg/ml Propidium iodide) per well. The plates are then incubated for at least 30 min in the dark at RT and the samples then transferred to FACS tubes. Samples are measured in a FACS machine (Beckton Dickinson) at the following settings:
Instrument Settings of the FACS Calibur:
The ratio of cells in G0/G1-phase to G2/M phase is calculated and compared to the value for the controls (DMSO) only. Results are given in table 2 as the IC50 value calculated from the concentration curve plotted against the cell cycle ratio and indicate the compound concentration at which 50% of cells are in cell cycle arrest after treatment with the compound.

| IC50 | Structure (SMILES) |
| --- | --- |
| 15 nM | Cc1nc(-n2cccn2)nc(N[C@@H](C)C(F)(F)F)c1-c1c(F)cc(F)cc1F [Example 156] |
| 19 nM | Cc1nc(-n2ccnn2)nc(N[C@@H](C)C(F)(F)F)c1-c1c(F)cc(F)cc1F [Example 157] |
| 44 nM | CCON=C(N)c1nc(Cl)c(-c2c(F)cc(F)cc2F)c(N[C@H](C)C(F)(F)F)n1 [Example 158] |
| 23 nM | C[C@H](Nc1nc(C(N)=O)nc(Cl)c1-c1c(F)cc(F)cc1F)C(F)(F)F [Example 159] |
| 31 nM | CCCNc1nc(-n2nc(C)cc2C(=O)OCC)nc(Cl)c1-c1ccc(C)cc1F [Example 160] |
| 50 nM | CC1CCCCN1c1nc(-n2cccn2)nc(Br)c1-c1c(F)cc(F)cc1F (stereo not drawn) [Example 161] |
| 17 nM | C[C@H](Nc1nc(-n2cc(C#N)cn2)nc(Cl)c1-c1c(F)cc(F)cc1F)C(F)(F)F [Example 162] |
| 30 nM | CCC(C)Nc1nc(-n2cc(C#N)cn2)nc(Cl)c1-c1c(F)cccc1Cl (stereo not drawn) [Example 163] |
| 48 nM | CCNc1nc(-n2cccn2)nc(Cl)c1-c1c(F)cc(F)cc1F [Example 164] |
| 30 nM | C[C@H](Nc1nc(-n2nccn2)nc(Br)c1-c1c(F)cc(F)cc1F)C(F)(F)F [Example 165] |
| 42 nM | Cc1nc(-n2ccnn2)nc(N2CCC(C)CC2)c1-c1c(F)cccc1Cl [Example 166] |
| 20 nM | C[C@H](Nc1nc(-n2cccn2)nc(F)c1-c1c(F)cc(F)cc1F)C(F)(F)F [Example 167] |
| 36 nM | CC[C@H](C)Nc1nc(C(N)=NO)nc(Cl)c1-c1ccc(F)cc1Cl [Example 168] |
| 41 nM | C[C@H](Nc1nc(C(N)=S)nc(Cl)c1-c1c(F)cccc1Cl)C(F)(F)F [Example 169] |
| 59 nM | CON=C(N)c1nc(Cl)c(-c2ccc(F)cc2Cl)c(N2CCCC2C)n1 (stereo not drawn) [Example 170] |
| 54 nM | Cc1nc(C(N)=NO)nc(N[C@@H](C)C(F)(F)F)c1-c1c(F)cc(F)cc1F [Example 171] |
| 21 nM | C[C@H](Nc1nc(C(N)=NO)nc(Cl)c1-c1ccc(F)cc1Cl)C(F)(F)F [Example 172] |

| IC50 | Structure (SMILES) |
| --- | --- |
| 18 nM | NC(=NO)c1nc(Cl)c(-c2c(F)cc(F)cc2F)c(NCC(F)(F)F)n1 [Example 173] |
| 42 nM | CNC(=O)c1nc(Cl)c(-c2c(F)cc(F)cc2F)c(N[C@@H](C)C(F)(F)F)n1 [Example 174] |
| 18 nM | C[C@H](Nc1nc(C(N)=NO)nc(Cl)c1-c1c(F)cccc1F)C(F)(F)F [Example 175] |
| 20 nM | C[C@H](Nc1nc(C(N)=NO)nc(Cl)c1-c1c(F)cccc1Cl)C(F)(F)F [Example 176] |
| 21 nM | C[C@H](Nc1nc(C(N)=NOC(F)F)nc(Cl)c1-c1c(F)cc(F)cc1F)C(F)(F)F [Example 177] |
| 20 nM | Cc1csc(-c2nc(Cl)c(-c3c(F)cc(F)cc3F)c(N[C@@H](C)C(F)(F)F)n2)n1 [Example 178] |
| 53 nM | CC1CCN(c2nc(C(N)=O)nc(Cl)c2-c2c(F)cccc2F)CC1 [Example 179] |
| 41 nM | C[C@H](Nc1nc(C(N)=O)nc(Cl)c1-c1c(F)cccc1F)C(F)(F)F [Example 180] |
| 6 nM | COc1cc(F)c(-c2c(Cl)nc(C(N)=NO)nc2N[C@@H](C)C(F)(F)F)c(F)c1 [Example 181] |
| 11 nM | CON=C(N)c1nc(Cl)c(-c2c(F)cc(OC)cc2F)c(N[C@@H](C)C(F)(F)F)n1 [Example 182] |
| 53 nM | COc1ccc(-c2c(Cl)nc(C(N)=O)nc2N[C@@H](C)C(C)C)c(Cl)c1 [Example 183] |
| 51 nM | CC(=O)NC(=O)c1nc(Cl)c(-c2c(F)cccc2F)c(N2CCC(C)CC2)n1 [Example 184] |
| 30 nM | COc1ccc(-c2c(Cl)nc(C(N)=NO)nc2N[C@@H](C)C(C)C)c(Cl)c1 [Example 185] |
| 33 nM | CON=C(N)c1nc(Cl)c(-c2ccc(OC)cc2Cl)c(N[C@@H](C)C(C)C)n1 [Example 186] |
| 39 nM | C[C@H](Nc1nc(-n2cc(C#N)c(N)n2)nc(Cl)c1-c1c(F)cccc1Cl)C(F)(F)F [Example 187] |
| 30 nM | COc1cc(F)c(-c2c(Cl)nc(C(N)=O)nc2N2CCC(C)CC2)c(F)c1 [Example 188] |

— patent US20080146593A1, “Substituted 5-Phenyl Pyrimidines I In Therapy” (Basf Aktiengesellschaft, priority 2005, published 2008)
